Results taken from patent US9340574B2, “Inhibitors of protein tyrosine phosphatases” (Indiana University Research and Technology Corporation, priority 2012, dated 2016).

How the values were obtained:
[1] = biological target: LAR (Homo sapiens (Human), UniProt P10586); assay: pNPP hydrolysis enzyme assay, LAR; format: biochemical
Procedure: (§1) Enzyme kinetic assay. PTP activity was assayed using p-nitrophenyl phosphate (pNPP) as a substrate in 3,3-dimethylglutarate buffer (50 mM 3,3-dimethylglutarate, pH 7.0, 1 mM EDTA, 150 mM NaCl, 2 mM DTT, 0.1 mg/mL BSA) at 25° C. The assays were performed in 96-well plates. Normally, to determine the IC50 values, the reaction was initiated by the addition of enzyme (final concentration at 10 nM) to a reaction mixture (0.2 mL) containing 2 mM (Km for the substrate) pNPP with various concentrations of inhibitors. The reaction rate was measured using a SpectraMax Plus 384 Microplate Spectrophotometer (Molecular Devices). To determine the mode of inhibition, the reactions were initiated by the addition of PTP-MEG2 to the reaction mixtures (0.2 mL) containing various concentrations of pNPP with different concentrations of the inhibitor 7. Data were fitted using SigmaPlot Enzyme Kinetics Module (Systat Software, Inc.).

[2] = biological target: PTPH1 (Homo sapiens (Human), UniProt P26045); assay: pNPP hydrolysis enzyme assay, PTPH1; format: biochemical
Procedure: as §1

[3] = biological target: PTPμ (Homo sapiens (Human), UniProt P28827); assay: pNPP hydrolysis enzyme assay, PTPμ; format: biochemical
Procedure: as §1

[4] = biological target: FAP1 (Homo sapiens (Human), UniProt Q12923); assay: pNPP hydrolysis enzyme assay, FAP1; format: biochemical
Procedure: as §1

[5] = biological target: Laforin (Homo sapiens (Human), UniProt O95278); assay: pNPP hydrolysis enzyme assay, Laforin; format: biochemical
Procedure: as §1

[6] = test system: HepG2 hepatocytes; assay: Insulin signaling in HepG2 hepatocytes; format: cell-based; settings: HepG2, 1 hour pretreatment, 10 nM insulin 30 min
Procedure: Cell lysate (20 μg protein) was subjected to 10% SDS-PAGE and probed with phospho-Akt, phospho-IR (Y1162/1163) or Akt antibody, respectively. […] Cell lysate (20 μg protein) was subjected to 10% SDS-PAGE and probed with phospho-IR(Y1162/1163), phospho-Akt (pS473) or total Akt antibody, respectively. […] Cell lysate (20 μg protein) or insulin receptor immunoprecipitation beads were subjected to 10% SDS-PAGE and probed with phospho-Akt, Akt, insulin receptor beta or phospho-tyrosine antibody (4G10), respectively. The non-specific band from insulin receptor immunoprecipitates served as a loading control for insulin receptor and phospho-insulin receptor.
Western blot analysis. Cells were homogenized in the lysis buffer (50 mM Hepes, pH 7.5, 150 mM NaCl, 10% Glycerol, 1% Triton X-100, 1.5 mM MgCl2, 1 mM EGTA, 10 μM Sodium Pyrophosphate, 100 mM sodium fluoride and freshly added 100 μM sodium vanadate, 1 mM PMSF, 10 μg/ml Aprotinin, and 10 μg/mL Leupeptin). Protein extracts were resolved on an SDS-PAGE gel and transferred to nitrocellulose membrane. […] Protein signals were detected by incubation with HRP-conjugated secondary antibodies, followed by ECL detection reagent (Pierce). Western blots were scanned and quantified using the Quantity One software (Bio-Rad).

[7] = biological target: LYP (Homo sapiens (Human), UniProt Q9Y2R2); assay: pNPP hydrolysis enzyme assay, LYP; format: biochemical
Procedure: as §1

[8] = biological target: VHR (Homo sapiens (Human), UniProt P51452); assay: pNPP hydrolysis enzyme assay, VHR; format: biochemical
Procedure: as §1

[9] = biological target: SHP1 (Homo sapiens (Human), UniProt P29350); assay: pNPP hydrolysis enzyme assay, SHP1; format: biochemical
Procedure: as §1

[10] = test system: diet-induced obese C57BL/6 mice; assay: Glucose tolerance test in diet-induced obese mice; settings: 5 mg/kg i.p. twice a day
Procedure: (§2) C57BL/6J mice were fed a high-fat diet for 10 weeks before Compound 7 or vehicle was injected intraperitoneally twice a day at a dose of 5 mg/kg body weight. FIG. 5A depicts insulin tolerance tests (ITT) performed on Day 7 by injecting intraperitoneally a bolus of 0.75 unit/kg of human regular insulin. […] FIG. 5C depicts glucose tolerance tests (GTT) carried out on Day 9 after a bolus of 1 g/kg glucose was injected intraperitoneally. […] FIG. 5E depicts pyruvate tolerance tests (PTT) performed on Day 12 after an injection of 2 g/kg pyruvate solution. […] At the end of 2-week injections of Compound 7, animals were fasted overnight and stimulated with a bolus of 1 unit of human regular insulin or saline via vena cava. Three minutes later, liver, skeletal muscle, and white adipose tissue (WAT) were collected sequentially for insulin signaling analysis. FIG. 5G depicts the phosphorylation of Tyr1162/1163 in insulin receptor (IR) and Ser473 phosphorylation in Akt kinases and the corresponding proteins in the liver, skeletal muscle, and white adipose tissue (WAT) were analyzed by immunoblots.
(§3) To this end, we intraperitoneally injected Compound 7 into diet-induced obese C57BL/6 mice at a dose of 5 mg/kg twice a day. […] After 7 days of injections, we performed insulin tolerance tests to measure insulin sensitivity in vehicle and Compound 7 treated mice.

[11] = biological target: PTP-PEST (Homo sapiens (Human), UniProt Q05209); assay: pNPP hydrolysis enzyme assay, PTP-PEST; format: biochemical
Procedure: as §1

[12] = test system: diet-induced obese C57BL/6 mice; assay: Insulin tolerance test in diet-induced obese mice; format: in vivo, mouse; settings: 5 mg/kg i.p. twice a day
Procedure: as §2, §3

Chain of LAR (P10586 whole entry, looked up, species assumed): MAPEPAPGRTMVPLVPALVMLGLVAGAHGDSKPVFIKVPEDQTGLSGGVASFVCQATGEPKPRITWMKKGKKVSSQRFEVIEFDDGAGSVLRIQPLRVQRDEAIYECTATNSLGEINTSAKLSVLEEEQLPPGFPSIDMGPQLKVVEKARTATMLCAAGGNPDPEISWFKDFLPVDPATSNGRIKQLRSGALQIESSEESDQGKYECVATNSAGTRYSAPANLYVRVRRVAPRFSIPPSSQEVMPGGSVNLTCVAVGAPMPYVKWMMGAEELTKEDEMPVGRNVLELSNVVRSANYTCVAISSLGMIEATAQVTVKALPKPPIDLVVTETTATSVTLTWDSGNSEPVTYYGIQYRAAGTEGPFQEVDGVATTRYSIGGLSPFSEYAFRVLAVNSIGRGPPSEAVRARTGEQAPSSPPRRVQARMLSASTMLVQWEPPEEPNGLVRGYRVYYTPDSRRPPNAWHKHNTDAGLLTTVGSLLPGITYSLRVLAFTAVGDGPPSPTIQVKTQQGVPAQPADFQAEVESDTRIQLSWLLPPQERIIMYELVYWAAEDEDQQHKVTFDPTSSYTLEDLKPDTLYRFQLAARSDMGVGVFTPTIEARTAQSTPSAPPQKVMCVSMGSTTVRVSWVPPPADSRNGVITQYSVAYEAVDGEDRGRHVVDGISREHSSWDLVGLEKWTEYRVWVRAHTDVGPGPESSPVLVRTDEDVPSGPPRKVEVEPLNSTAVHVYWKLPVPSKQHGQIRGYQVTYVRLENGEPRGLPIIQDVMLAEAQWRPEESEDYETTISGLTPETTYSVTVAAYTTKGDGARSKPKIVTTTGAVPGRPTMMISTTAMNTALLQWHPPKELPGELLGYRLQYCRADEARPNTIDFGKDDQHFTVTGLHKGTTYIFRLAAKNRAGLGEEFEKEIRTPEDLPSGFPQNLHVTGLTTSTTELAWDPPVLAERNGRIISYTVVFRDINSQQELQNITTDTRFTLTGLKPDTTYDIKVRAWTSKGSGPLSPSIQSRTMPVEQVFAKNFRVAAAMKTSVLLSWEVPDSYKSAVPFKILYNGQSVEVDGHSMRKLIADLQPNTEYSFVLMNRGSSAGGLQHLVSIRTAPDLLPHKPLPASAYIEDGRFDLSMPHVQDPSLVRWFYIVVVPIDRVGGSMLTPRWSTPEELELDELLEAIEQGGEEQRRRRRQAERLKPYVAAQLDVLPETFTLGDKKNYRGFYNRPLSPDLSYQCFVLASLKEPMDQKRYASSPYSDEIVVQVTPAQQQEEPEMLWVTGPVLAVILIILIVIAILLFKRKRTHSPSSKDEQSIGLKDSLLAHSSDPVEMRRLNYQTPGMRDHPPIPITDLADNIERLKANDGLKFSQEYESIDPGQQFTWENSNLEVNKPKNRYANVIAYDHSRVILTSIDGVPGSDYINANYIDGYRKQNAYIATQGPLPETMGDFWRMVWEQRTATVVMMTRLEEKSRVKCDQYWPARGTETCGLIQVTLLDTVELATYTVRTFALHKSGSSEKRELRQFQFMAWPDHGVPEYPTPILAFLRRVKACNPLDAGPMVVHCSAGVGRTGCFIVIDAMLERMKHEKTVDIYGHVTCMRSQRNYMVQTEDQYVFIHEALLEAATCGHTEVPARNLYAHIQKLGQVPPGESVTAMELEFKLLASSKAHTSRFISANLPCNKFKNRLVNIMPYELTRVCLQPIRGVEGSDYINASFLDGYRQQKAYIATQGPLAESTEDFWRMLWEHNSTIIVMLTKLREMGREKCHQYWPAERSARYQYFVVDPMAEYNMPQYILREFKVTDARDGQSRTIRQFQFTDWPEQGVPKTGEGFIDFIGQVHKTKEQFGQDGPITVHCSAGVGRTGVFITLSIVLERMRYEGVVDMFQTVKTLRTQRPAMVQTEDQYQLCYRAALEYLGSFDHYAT
Chain of SHP1 (P29350 whole entry): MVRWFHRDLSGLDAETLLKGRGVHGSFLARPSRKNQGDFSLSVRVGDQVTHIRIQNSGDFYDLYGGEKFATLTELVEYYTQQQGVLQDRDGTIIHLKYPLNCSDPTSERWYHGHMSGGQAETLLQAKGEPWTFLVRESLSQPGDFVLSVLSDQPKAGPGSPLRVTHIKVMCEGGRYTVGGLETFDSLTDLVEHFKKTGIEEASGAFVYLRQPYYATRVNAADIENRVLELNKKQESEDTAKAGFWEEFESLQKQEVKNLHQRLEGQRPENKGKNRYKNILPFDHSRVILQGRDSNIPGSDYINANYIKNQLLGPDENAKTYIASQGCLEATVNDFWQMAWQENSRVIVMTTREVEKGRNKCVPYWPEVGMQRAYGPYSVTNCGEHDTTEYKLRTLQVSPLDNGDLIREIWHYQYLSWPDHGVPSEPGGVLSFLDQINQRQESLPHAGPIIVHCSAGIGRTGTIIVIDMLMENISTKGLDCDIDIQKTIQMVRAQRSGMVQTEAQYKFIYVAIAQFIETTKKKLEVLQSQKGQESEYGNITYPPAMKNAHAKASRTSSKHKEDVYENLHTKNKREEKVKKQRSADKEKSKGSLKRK
Chain of VHR (P51452 whole entry, species assumed): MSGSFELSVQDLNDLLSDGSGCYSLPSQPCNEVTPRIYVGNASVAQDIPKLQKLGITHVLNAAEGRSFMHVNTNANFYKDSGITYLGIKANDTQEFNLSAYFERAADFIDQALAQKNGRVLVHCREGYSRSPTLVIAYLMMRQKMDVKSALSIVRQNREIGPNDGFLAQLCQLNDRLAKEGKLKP
Chain of PTPμ (P28827 21-1452): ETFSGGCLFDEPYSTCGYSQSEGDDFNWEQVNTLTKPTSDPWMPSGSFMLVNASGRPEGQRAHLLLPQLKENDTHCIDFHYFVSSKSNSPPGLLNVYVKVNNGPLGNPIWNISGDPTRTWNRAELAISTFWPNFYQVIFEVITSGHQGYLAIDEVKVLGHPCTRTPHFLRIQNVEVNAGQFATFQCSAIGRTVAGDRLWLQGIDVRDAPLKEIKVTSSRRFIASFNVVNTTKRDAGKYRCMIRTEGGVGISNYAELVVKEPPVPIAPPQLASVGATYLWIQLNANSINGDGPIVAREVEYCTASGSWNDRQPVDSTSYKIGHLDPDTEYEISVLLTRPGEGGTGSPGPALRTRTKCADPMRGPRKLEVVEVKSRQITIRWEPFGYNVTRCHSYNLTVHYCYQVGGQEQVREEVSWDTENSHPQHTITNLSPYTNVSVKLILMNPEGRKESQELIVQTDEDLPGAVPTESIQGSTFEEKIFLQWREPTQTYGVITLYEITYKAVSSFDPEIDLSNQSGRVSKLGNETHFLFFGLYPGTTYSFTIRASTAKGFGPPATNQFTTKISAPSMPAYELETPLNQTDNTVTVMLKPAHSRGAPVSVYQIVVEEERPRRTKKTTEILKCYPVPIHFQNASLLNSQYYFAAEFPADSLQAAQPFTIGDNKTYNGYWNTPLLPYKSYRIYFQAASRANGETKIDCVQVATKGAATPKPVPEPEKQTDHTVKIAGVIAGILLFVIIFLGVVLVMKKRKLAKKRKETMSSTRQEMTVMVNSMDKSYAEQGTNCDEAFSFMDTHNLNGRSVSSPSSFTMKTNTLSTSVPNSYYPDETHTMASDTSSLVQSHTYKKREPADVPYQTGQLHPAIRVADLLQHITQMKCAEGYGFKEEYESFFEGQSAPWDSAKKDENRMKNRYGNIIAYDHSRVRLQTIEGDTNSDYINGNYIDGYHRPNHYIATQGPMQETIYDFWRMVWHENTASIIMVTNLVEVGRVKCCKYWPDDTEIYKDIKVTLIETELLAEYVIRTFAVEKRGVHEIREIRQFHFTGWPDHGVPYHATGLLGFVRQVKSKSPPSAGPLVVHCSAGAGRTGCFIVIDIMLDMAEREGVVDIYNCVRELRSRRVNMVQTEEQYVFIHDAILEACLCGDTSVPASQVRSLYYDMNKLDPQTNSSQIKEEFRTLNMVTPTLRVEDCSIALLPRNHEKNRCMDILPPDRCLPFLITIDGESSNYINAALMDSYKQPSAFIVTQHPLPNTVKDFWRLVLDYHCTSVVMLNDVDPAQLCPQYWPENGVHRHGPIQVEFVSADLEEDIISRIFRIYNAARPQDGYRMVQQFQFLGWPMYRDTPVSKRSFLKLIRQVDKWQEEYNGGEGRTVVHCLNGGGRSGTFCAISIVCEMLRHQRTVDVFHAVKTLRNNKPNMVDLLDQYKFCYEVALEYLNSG
Chain of Laforin (O95278 whole entry, species assumed): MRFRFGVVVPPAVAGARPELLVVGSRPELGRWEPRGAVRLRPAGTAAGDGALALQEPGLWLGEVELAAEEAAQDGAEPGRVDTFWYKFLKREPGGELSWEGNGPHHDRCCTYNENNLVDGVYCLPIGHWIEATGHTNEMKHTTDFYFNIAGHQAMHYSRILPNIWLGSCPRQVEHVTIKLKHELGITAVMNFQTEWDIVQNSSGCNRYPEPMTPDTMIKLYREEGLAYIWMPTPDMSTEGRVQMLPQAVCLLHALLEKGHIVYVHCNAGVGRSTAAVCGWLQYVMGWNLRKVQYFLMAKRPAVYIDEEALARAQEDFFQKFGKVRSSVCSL

COc1cc(CC(=O)NCC(NC(=O)C(CCCNC(=O)c2cccc(I)c2)NC(=O)C(Cc2ccc(C(F)(F)P(=O)(O)O)cc2)NC(=O)c2ccc(C)c(Br)c2)C(N)=O)ccc1O (centres unmarked) [Compound 7]
IC50 [1]: > 10000 nM
IC50 [2]: > 10000 nM
IC50 [3]: > 10000 nM
IC50 [4]: > 10000 nM
IC50 [5]: > 10000 nM
insulin signaling (phospho-IR, phospho-Akt) [6]: augmented insulin signaling
IC50 [7]: > 10000 nM
IC50 [8]: > 10000 nM
IC50 [9]: > 10000 nM
glucose clearance in glucose tolerance test ([10]; Day 9, at 15, 30, and 60 minutes): significantly enhanced glucose clearance
improvement in glucose disposal (AUC) ([10]; Day 9, vs vehicle): 21%
IC50 [11]: > 10000 nM
insulin sensitivity in insulin tolerance test ([12]; Day 7, at 15 and 60 minutes after 0.75 unit insulin): significantly improved insulin sensitivity
improvement in insulin tolerance (AUC) ([12]; Day 7, vs vehicle): 14%
